Laboratory results published in patent publication US20130012432A1, “Peptides for Treatment of Obesity” (Novo Nordisk A/S, priority 2010, published 2013).
Values after ≈ are worked out from the molar mass of the structure shown. Positions of bridges follow the written chain, without caps; N, C: chain ends. Non-standard residues stand in square brackets, D forms with d. Residues, ends and D or L forms follow the SMILES beside them. Groups on a side chain read outwards from the residue. *: point of attachment. Palmitoyl(16-(5-tetrazolyl)) = O=C(CCCCCCCCCCCCCCCc1nnn[nH]1)*; Lys(CH2CO2H)2 = N[C@@H](CCCCN(CC(=O)O)CC(=O)O)C(=O)O; C18 diacid = O=C(O)CCCCCCCCCCCCCCCCC(=O)*; C17 diacid = O=C(O)CCCCCCCCCCCCCCCC(=O)*; C16 diacid = O=C(O)CCCCCCCCCCCCCCC(=O)*; Hyp = O=C(O)[C@@H]1C[C@@H](O)CN1; NTA = O=C(O)CN(CC(=O)O)CC(=O)*; hCys = N[C@@H](CCS)C(=O)O; Orn = NCCC[C@H](N)C(=O)O; Dap = NC[C@H](N)C(=O)O; AEEA = NCCOCCOCC(=O)O

Assay: physchem
Procedure: From a stock solution in vehicle, either H2O or 10 mM phosphate, containing 1 mg (as weighed) compound per ml, 8-11 aliquots are withdrawn and pH-adjusted individually with HCl/NaOH, to cover the whole pH range.

Structure (SMILES)	solubility (pH 6.2, Solubility Conc.) [µM]	solubility (pH 6.8, Solubility Conc.) [µM]	solubility (pH 7.1, Solubility Conc.) [µM]	solubility (pH 7.4, Solubility Conc.) [µM]	solubility (pH 7.6, Solubility Conc.) [µM]	solubility (pH 7.8, Solubility Conc.) [µM]	solubility (pH 7.9, Solubility Conc.) [µM]	solubility (pH 6.9, Solubility Conc.) [µM]	solubility (pH 7.7, Solubility Conc.) [µM]	solubility (pH 8, Solubility Conc.) [µM]	solubility (pH 7.5, Solubility Conc.) [µM]	solubility (pH 7.3, Solubility Conc.) [µM]	further results
CC(=O)N[C@H]1CCC(=O)NCCC[C@@H](C(=O)N2CCC[C@H]2C(=O)N2CCC[C@H]2C(=O)N[C@@H](CCCNC(=N)N)C(=O)N[C@@H](CC(=O)O)C(=O)N[C@@H](CCCCN(CC(=O)O)CC(=O)O)C(=O)N[C@@H](CCCCNC(=O)COCCOCCNC(=O)CCCCCCCCCCCCCCCc2nnn[nH]2)C(N)=O)NC(=O)[C@H](Cc2c[nH]c3ccccc23)NC(=O)[C@H](CCCNC(=N)N)NC(=O)[C@@H](Cc2ccccc2)NC(=O)[C@H](Cc2c[nH]cn2)NC1=O [Example 54, Ac-c[Glu-His-D-Phe-Arg-Trp-Orn]-Pro-Pro-Arg-Asp-Lys(biscarboxymethyl)-Lys[(2-{2-[16-(tetrazol-5-yl)hexadecanoylamino]ethoxy}ethoxy)acetyl]-NH2] (Ac-EH[dF]RW[Orn]PPRD[Lys(CH2CO2H)2]K([AEEA-Palmitoyl(16-(5-tetrazolyl))])-NH2; lactam 1-6)	23 (≈ 50.6 µg/mL)	43 (≈ 94.6 µg/mL)	95 (≈ 209 µg/mL)	221 (≈ 486 µg/mL)	202 (≈ 445 µg/mL)	200 (≈ 440 µg/mL)	217 (≈ 478 µg/mL)						solubility (pH 5.5, Solubility Conc.): 22 µM (≈ 48.4 µg/mL); solubility (pH 7, Solubility Conc.): 78 µM (≈ 172 µg/mL)
CC(=O)N[C@H]1CCCNC(=O)C[C@@H](C(=O)N2CCC[C@H]2C(=O)N2CCC[C@H]2C(=O)N[C@@H](Cc2c[nH]cn2)C(=O)N[C@@H](CCC(=O)O)C(=O)N[C@@H](CCCCN(CC(=O)O)CC(=O)O)C(=O)N[C@@H](CCCCNC(=O)COCCOCCNC(=O)CCCCCCCCCCCCCCCC(=O)O)C(N)=O)NC(=O)[C@H](Cc2c[nH]c3ccccc23)NC(=O)[C@H](CCCNC(=N)N)NC(=O)[C@@H](Cc2ccccc2)NC(=O)[C@H](Cc2c[nH]cn2)NC1=O [Example 55, Ac-c[Orn-His-D-Phe-Arg-Trp-Asp]-Pro-Pro-His-Glu-Lys(biscarboxymethyl)-Lys({2-[2-(16-carboxyhexadecanoylamino)ethoxy]ethoxy}acetyl)-NH2] (Ac-[Orn]H[dF]RWDPPHE[Lys(CH2CO2H)2]K([AEEA-C17 diacid])-NH2; lactam 1-6)					422 (≈ 910 µg/mL)			426 (≈ 919 µg/mL)	435 (≈ 939 µg/mL)	426 (≈ 919 µg/mL)			solubility (pH 6.3, Solubility Conc.): 152 µM (≈ 328 µg/mL); solubility (pH 6.5, Solubility Conc.): 236 µM (≈ 509 µg/mL); solubility (pH 6.6, Solubility Conc.): 337 µM (≈ 727 µg/mL); solubility (pH 6.7, Solubility Conc.): 436 µM (≈ 941 µg/mL); solubility (pH 7.2, Solubility Conc.): 414 µM (≈ 893 µg/mL)
CC(=O)N[C@H]1CCC(=O)NCCC[C@@H](C(=O)N2C[C@H](O)C[C@H]2C(=O)N2C[C@H](O)C[C@H]2C(=O)N[C@@H](CCCNC(=N)N)C(=O)N[C@@H](CC(=O)O)C(=O)N[C@@H](CCCCN(CC(=O)O)CC(=O)O)C(=O)N[C@@H](CCCCNC(=O)COCCOCCNC(=O)CCCCCCCCCCCCCCCc2nnn[nH]2)C(N)=O)NC(=O)[C@H](Cc2c[nH]c3ccccc23)NC(=O)[C@H](CCCNC(=N)N)NC(=O)[C@@H](Cc2ccccc2)NC(=O)[C@H](Cc2c[nH]cn2)NC1=O [Example 56, Ac-c[Glu-His-D-Phe-Arg-Trp-Orn]-Hyp-Hyp-Arg-Asp-Lys(biscarboxymethyl)-Lys[(2-{2-[16-(tetrazol-5-yl)hexadecanoylamino]ethoxy}ethoxy)acetyl]-NH2] (Ac-EH[dF]RW[Orn][Hyp][Hyp]RD[Lys(CH2CO2H)2]K([AEEA-Palmitoyl(16-(5-tetrazolyl))])-NH2; lactam 1-6)		47 (≈ 105 µg/mL)	79 (≈ 176 µg/mL)	169 (≈ 377 µg/mL)	521 (≈ 1160 µg/mL)	524 (≈ 1170 µg/mL)			408 (≈ 911 µg/mL)	392 (≈ 875 µg/mL)	395 (≈ 882 µg/mL)		
CC(=O)N[C@H]1CCSSC[C@@H](C(=O)N2CCC[C@H]2C(=O)N2CCC[C@H]2C(=O)N[C@@H](CCCCN)C(=O)N[C@@H](CCC(=O)O)C(=O)N[C@@H](CCCCN(CC(=O)O)CC(=O)O)C(=O)N[C@@H](CCCCNC(=O)COCCOCCNC(=O)CCCCCCCCCCCCCCCc2nnn[nH]2)C(N)=O)NC(=O)[C@H](Cc2c[nH]c3ccccc23)NC(=O)[C@H](CCCNC(=N)N)NC(=O)[C@@H](Cc2ccccc2)NC(=O)[C@H](CO)NC1=O [Example 58, Ac-c[homoCys-Ser-D-Phe-Arg-Trp-Cys]-Pro-Pro-Lys-Glu-Lys(biscarboxymethyl)-Lys[(2-{2-[16-(tetrazol-5-yl)hexadecanoylamino]ethoxy}ethoxy)acetyl]-NH2] (Ac-[hCys]S[dF]RWCPPKE[Lys(CH2CO2H)2]K([AEEA-Palmitoyl(16-(5-tetrazolyl))])-NH2; disulfide 1-6)	21 (≈ 44.7 µg/mL)				385 (≈ 820 µg/mL)						80 (≈ 170 µg/mL)		solubility (pH 3, Solubility Conc.): 539 µM (≈ 1150 µg/mL); solubility (pH 3.9, Solubility Conc.): 56 µM (≈ 119 µg/mL); solubility (pH 5.9, Solubility Conc.): 8 µM (≈ 17 µg/mL); solubility (pH 6.5, Solubility Conc.): 37 µM (≈ 78.8 µg/mL); solubility (pH 6.6, Solubility Conc.): 30 µM (≈ 63.9 µg/mL); solubility (pH 8.6, Solubility Conc.): 250 µM (≈ 532 µg/mL); solubility (pH 9, Solubility Conc.): 365 µM (≈ 777 µg/mL)
CC(=O)N[C@H]1CCSSC[C@@H](C(=O)N[C@@H](CO)C(=O)N2CCC[C@H]2C(=O)N[C@@H](CCCCN)C(=O)N[C@@H](CCC(=O)O)C(=O)N[C@@H](CCCCN(CC(=O)O)CC(=O)O)C(=O)N[C@@H](CCCCNC(=O)COCCOCCNC(=O)CCCCCCCCCCCCCCC(=O)O)C(N)=O)NC(=O)[C@H](Cc2c[nH]c3ccccc23)NC(=O)[C@H](CCCNC(=N)N)NC(=O)[C@@H](Cc2ccccc2)NC(=O)[C@H](Cc2c[nH]cn2)NC1=O [Example 60, Ac-c[homoCys-His-D-Phe-Arg-Trp-Cys]-Ser-Pro-Lys-Glu-Lys(biscarboxymethyl)-Lys({2-[2-(15-carboxypentadecanoylamino)ethoxy]ethoxy}acetyl)-NH2] (Ac-[hCys]H[dF]RWCSPKE[Lys(CH2CO2H)2]K([AEEA-C16 diacid])-NH2; disulfide 1-6)	171 (≈ 364 µg/mL)	457 (≈ 974 µg/mL)			456 (≈ 972 µg/mL)	461 (≈ 983 µg/mL)	450 (≈ 959 µg/mL)					459 (≈ 978 µg/mL)	solubility (pH 4, Solubility Conc.): 424 µM (≈ 904 µg/mL); solubility (pH 5.4, Solubility Conc.): 126 µM (≈ 269 µg/mL); solubility (pH 6, Solubility Conc.): 133 µM (≈ 283 µg/mL); solubility (pH 6.4, Solubility Conc.): 415 µM (≈ 885 µg/mL)
CC(=O)N[C@H]1CCSSC[C@@H](C(=O)N2CCC[C@H]2C(=O)N2CCC[C@H]2C(=O)N[C@@H](CCCCN)C(=O)N[C@@H](CC(=O)O)C(=O)N[C@@H](CNC(=O)CN(CC(=O)O)CC(=O)O)C(=O)N[C@@H](CCCCNC(=O)COCCOCCNC(=O)CCCCCCCCCCCCCCCc2nnn[nH]2)C(N)=O)NC(=O)[C@H](Cc2c[nH]c3ccccc23)NC(=O)[C@H](CCCNC(=N)N)NC(=O)[C@@H](Cc2ccccc2)NC(=O)[C@H](Cc2c[nH]cn2)NC1=O [Example 61, Ac-c[homoCys-His-D-Phe-Arg-Trp-Cys]-Pro-Pro-Lys-Asp-Dap(BCMA)-Lys[(2-{2-[16-(tetrazol-5-yl)hexadecanoylamino]ethoxy}ethoxy)acetyl]-NH2] (Ac-[hCys]H[dF]RWCPPKD[Dap](NTA)K([AEEA-Palmitoyl(16-(5-tetrazolyl))])-NH2; disulfide 1-6)		46 (≈ 100 µg/mL)	256 (≈ 558 µg/mL)	713 (≈ 1550 µg/mL)					805 (≈ 1760 µg/mL)			630 (≈ 1370 µg/mL)	solubility (pH 3.3, Solubility Conc.): 623 µM (≈ 1360 µg/mL); solubility (pH 4.4, Solubility Conc.): 575 µM (≈ 1250 µg/mL); solubility (pH 4.8, Solubility Conc.): 584 µM (≈ 1270 µg/mL); solubility (pH 5.3, Solubility Conc.): 32 µM (≈ 69.8 µg/mL); solubility (pH 6.3, Solubility Conc.): 26 µM (≈ 56.7 µg/mL)
CC(=O)N[C@H]1CCSSC[C@@H](C(=O)N[C@@H](CO)C(=O)N2CCC[C@H]2C(=O)N[C@@H](Cc2c[nH]cn2)C(=O)N[C@@H](CCC(=O)O)C(=O)N[C@@H](CCCCN(CC(=O)O)CC(=O)O)C(=O)N[C@@H](CCCCNC(=O)COCCOCCNC(=O)CCCCCCCCCCCCCCCCC(=O)O)C(N)=O)NC(=O)[C@H](Cc2c[nH]c3ccccc23)NC(=O)[C@H](CCCNC(=N)N)NC(=O)[C@@H](Cc2ccccc2)NC(=O)[C@H](Cc2c[nH]cn2)NC1=O [Example 62, Ac-c[homoCys-His-D-Phe-Arg-Trp-Cys]-Ser-Pro-His-Glu-Lys(biscarboxymethyl)-Lys({2-[2-(17-carboxyheptadecanoylamino)ethoxy]ethoxy}acetyl)-NH2] (Ac-[hCys]H[dF]RWCSPHE[Lys(CH2CO2H)2]K([AEEA-C18 diacid])-NH2; disulfide 1-6)				243 (≈ 527 µg/mL)			245 (≈ 531 µg/mL)	82 (≈ 178 µg/mL)	251 (≈ 544 µg/mL)	233 (≈ 505 µg/mL)		241 (≈ 523 µg/mL)	solubility (pH 3.4, Solubility Conc.): 235 µM (≈ 510 µg/mL); solubility (pH 5, Solubility Conc.): 15 µM (≈ 32.5 µg/mL); solubility (pH 6.7, Solubility Conc.): 41 µM (≈ 88.9 µg/mL); solubility (pH 7, Solubility Conc.): 42 µM (≈ 91.1 µg/mL)
CC(=O)N[C@H]1CSSC[C@@H](C(=O)N2CCC[C@H]2C(=O)N2CCC[C@H]2C(=O)N[C@@H](CCCCN)C(=O)N[C@@H](CCC(=O)O)C(=O)N[C@@H](CCC(=O)O)C(=O)N[C@@H](CCCCNC(=O)COCCOCCNC(=O)CCCCCCCCCCCCCCC(=O)O)C(N)=O)NC(=O)CNC(=O)[C@H](Cc2c[nH]c3ccccc23)NC(=O)[C@H](CCCNC(=N)N)NC(=O)[C@@H](Cc2ccccc2)NC(=O)[C@H](Cc2c[nH]cn2)NC(=O)[C@H](CCC(=O)O)NC1=O [Example 68, Ac-c[Cys-Glu-His-D-Phe-Arg-Trp-Gly-Cys]-Pro-Pro-Lys-Glu-Glu-Lys({2-[2-(15-carboxypentadecanoylamino)ethoxy]ethoxy}acetyl)-NH2] (Ac-CEH[dF]RWGCPPKEEK([AEEA-C16 diacid])-NH2; disulfide 1-8)	164 (≈ 361 µg/mL)						188 (≈ 413 µg/mL)	182 (≈ 400 µg/mL)		183 (≈ 402 µg/mL)	184 (≈ 405 µg/mL)	181 (≈ 398 µg/mL)	solubility (pH 4, Solubility Conc.): 167 µM (≈ 367 µg/mL); solubility (pH 5.1, Solubility Conc.): 87 µM (≈ 191 µg/mL); solubility (pH 5.8, Solubility Conc.): 102 µM (≈ 224 µg/mL)
